Among the data in PMC10175918 (Communications Biology, 2023) are activation values, retold here.

What all share (test): TGFα-shedding assay-based GPCR screening with chimeric Gα subunit proteins
What all share (type): cell-based

In assay [1] the target is T1, 348 GPCRs (Homo sapiens, UniProt Q8NFJ6).
T1 construct: expressed in transfected cells; host or cells: HEK293A
To be noted: 10µM, Favipiravir 100μM.

Assay [2] addresses T2, 348 GPCRs (Homo sapiens, UniProt Q8TDV5).
T2 construct: expressed in transfected cells; host or cells: HEK293A
T2 sequence (Q8TDV5 1-335): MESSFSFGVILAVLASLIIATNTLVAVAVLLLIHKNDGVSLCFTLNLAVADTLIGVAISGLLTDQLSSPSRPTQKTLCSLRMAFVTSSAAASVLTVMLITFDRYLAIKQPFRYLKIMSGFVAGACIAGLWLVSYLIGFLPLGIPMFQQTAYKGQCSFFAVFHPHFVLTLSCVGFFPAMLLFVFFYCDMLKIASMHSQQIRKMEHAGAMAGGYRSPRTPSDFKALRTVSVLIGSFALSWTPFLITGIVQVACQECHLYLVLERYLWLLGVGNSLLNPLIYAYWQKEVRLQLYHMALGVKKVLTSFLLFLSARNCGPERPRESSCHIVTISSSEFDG

In assay [3] the target is T3, 348 GPCRs (Homo sapiens, UniProt P30988).
T3 sequence (P30988 25-474): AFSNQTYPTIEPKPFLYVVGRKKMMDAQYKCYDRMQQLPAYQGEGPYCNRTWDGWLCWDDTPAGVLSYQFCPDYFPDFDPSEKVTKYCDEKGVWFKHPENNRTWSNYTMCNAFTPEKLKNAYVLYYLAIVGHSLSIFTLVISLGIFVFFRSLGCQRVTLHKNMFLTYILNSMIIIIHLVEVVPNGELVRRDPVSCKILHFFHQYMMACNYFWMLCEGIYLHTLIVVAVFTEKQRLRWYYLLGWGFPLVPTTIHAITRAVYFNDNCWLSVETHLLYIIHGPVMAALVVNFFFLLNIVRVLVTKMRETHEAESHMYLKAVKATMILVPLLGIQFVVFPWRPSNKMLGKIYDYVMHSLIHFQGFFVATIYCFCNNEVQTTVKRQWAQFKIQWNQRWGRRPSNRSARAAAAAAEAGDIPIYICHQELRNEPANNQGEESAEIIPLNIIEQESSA
To be noted: 10µM, Favipiravir 100μM.

For assay [4], the target named is T4, 348 GPCRs (Homo sapiens, UniProt Q9NYV7).
T4 construct: expressed in transfected cells; host or cells: HEK293A
T4 sequence (Q9NYV7 1-291): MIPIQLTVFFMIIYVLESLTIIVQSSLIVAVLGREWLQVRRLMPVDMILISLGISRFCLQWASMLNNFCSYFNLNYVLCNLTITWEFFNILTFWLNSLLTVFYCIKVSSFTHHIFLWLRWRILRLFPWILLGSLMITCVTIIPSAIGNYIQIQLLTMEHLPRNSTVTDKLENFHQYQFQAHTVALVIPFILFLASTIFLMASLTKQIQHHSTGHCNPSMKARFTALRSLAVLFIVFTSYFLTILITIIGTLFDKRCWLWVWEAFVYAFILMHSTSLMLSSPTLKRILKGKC
To be noted: 10µM, Favipiravir 100μM.

Assay [5] concerns the target T5, 348 GPCRs (Homo sapiens, UniProt Q96RJ0).
T5 construct: expressed in transfected cells; host or cells: HEK293A
T5 sequence (Q96RJ0 1-339): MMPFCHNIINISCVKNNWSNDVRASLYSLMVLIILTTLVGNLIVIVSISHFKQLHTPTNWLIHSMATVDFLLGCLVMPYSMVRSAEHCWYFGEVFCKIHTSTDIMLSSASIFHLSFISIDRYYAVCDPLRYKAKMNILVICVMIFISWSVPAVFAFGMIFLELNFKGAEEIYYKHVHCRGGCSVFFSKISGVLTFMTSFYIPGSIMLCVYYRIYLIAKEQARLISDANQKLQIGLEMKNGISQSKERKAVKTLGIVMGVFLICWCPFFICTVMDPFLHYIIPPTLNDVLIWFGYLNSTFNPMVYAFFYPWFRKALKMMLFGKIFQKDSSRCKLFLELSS
The following applies: 10µM, Favipiravir 100μM.

Assay [6] deals with T6, 348 GPCRs (Homo sapiens, UniProt Q9NYW2).
T6 construct: expressed in transfected cells; host or cells: HEK293A
T6 sequence (Q9NYW2 1-309): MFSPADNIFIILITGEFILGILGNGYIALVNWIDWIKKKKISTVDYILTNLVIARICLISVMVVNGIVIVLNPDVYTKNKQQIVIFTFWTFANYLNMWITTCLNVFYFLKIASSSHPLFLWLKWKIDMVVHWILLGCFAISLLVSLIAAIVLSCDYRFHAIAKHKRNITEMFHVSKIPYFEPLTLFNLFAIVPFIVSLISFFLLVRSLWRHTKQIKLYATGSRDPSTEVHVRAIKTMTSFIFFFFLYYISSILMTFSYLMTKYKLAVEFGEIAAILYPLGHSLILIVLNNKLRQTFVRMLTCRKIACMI
To be noted: 10µM, Favipiravir 100μM.

For assay [7], the target named is T7, 348 GPCRs (Homo sapiens, UniProt Q96AM1).
T7 construct: expressed in transfected cells; host or cells: HEK293A
The following applies: 10µM, Favipiravir 100μM.

In assay [8] the target is T8, 348 GPCRs (Homo sapiens, UniProt P35367).
T8 construct: expressed in transfected cells; host or cells: HEK293A
To be noted: 10µM, Favipiravir 100μM.

In assay [9] the target is T9, 348 GPCRs (Homo sapiens, UniProt P28222).
T9 construct: expressed in transfected cells; host or cells: HEK293A
The following applies: 10µM, Favipiravir 100μM.

Where [10] appears, read: PK2 (prokineticin receptor 2), read-out: % GPCR activation compared to TPA.
Where [11] appears, read: PROKR2 (prokineticin receptor 2), read-out: % GPCR activation compared to TPA.
The mark [12] stands for this setting: CALCR (calcitonin receptor), read-out: % GPCR activation compared to TPA.
[13] abbreviates: TAS2R16 (taste receptor, type 2, member 16), read-out: % GPCR activation compared to TPA.
The mark [14] stands for this setting: TA1 (trace amine associated receptor 1), read-out: % GPCR activation compared to TPA.
[15] abbreviates: TAS2R8 (taste receptor, type 2, member 8), read-out: % GPCR activation compared to TPA.
Where [16] appears, read: MRGF (MAS-related GPR, member F), read-out: % GPCR activation compared to TPA.
Where [17] appears, read: MRGPRF (MAS-related GPR, member F), read-out: % GPCR activation compared to TPA.
Where [18] appears, read: H1 (histamine receptor H1), read-out: % GPCR activation compared to TPA.
Setting [19] is: 5-HT1B (5-hydroxytryptamine receptor 1B), read-out: % GPCR activation compared to TPA.
[20] abbreviates: read-out: % GPCR activation compared to TPA, PK2 (prokineticin receptor 2).
[21] abbreviates: read-out: % GPCR activation compared to TPA, PROKR2 (prokineticin receptor 2).
Setting [22] is: read-out: % GPCR activation compared to TPA, GPCR GPR119 (G protein-coupled receptor 119).
The mark [23] stands for this setting: read-out: % GPCR activation compared to TPA, CALCR (calcitonin receptor).
Where [24] appears, read: read-out: % GPCR activation compared to TPA, TAS2R16 (taste receptor, type 2, member 16).
[25] abbreviates: read-out: % GPCR activation compared to TPA, TA1 (trace amine associated receptor 1).
Where [26] appears, read: read-out: % GPCR activation compared to TPA, TAS2R8 (taste receptor, type 2, member 8).
Setting [27] is: read-out: % GPCR activation compared to TPA, MRGF (MAS-related GPR, member F).
[28] abbreviates: read-out: % GPCR activation compared to TPA, MRGPRF (MAS-related GPR, member F).
[29] abbreviates: read-out: % GPCR activation compared to TPA, H1 (histamine receptor H1).
Where [30] appears, read: read-out: % GPCR activation compared to TPA, 5-HT1B (5-hydroxytryptamine receptor 1B).
The mark [31] stands for this setting: GPCR GPR119 (G protein-coupled receptor 119), read-out: % GPCR activation compared to TPA.

Like-named read-outs stand apart in the source and are kept apart here.

T8 sequence (P35367 whole entry): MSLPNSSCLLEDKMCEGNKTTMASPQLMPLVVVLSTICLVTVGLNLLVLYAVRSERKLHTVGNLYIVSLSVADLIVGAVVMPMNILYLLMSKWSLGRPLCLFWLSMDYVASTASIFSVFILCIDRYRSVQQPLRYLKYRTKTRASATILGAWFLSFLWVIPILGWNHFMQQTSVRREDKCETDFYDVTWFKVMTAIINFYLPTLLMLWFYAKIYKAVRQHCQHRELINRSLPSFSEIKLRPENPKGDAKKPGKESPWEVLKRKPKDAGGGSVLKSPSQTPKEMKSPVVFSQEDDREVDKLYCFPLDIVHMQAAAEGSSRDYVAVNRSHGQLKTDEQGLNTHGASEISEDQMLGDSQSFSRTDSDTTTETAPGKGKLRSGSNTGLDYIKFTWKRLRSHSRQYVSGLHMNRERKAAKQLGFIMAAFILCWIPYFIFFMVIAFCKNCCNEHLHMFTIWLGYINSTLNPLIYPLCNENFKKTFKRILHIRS
T7 sequence (Q96AM1 whole entry): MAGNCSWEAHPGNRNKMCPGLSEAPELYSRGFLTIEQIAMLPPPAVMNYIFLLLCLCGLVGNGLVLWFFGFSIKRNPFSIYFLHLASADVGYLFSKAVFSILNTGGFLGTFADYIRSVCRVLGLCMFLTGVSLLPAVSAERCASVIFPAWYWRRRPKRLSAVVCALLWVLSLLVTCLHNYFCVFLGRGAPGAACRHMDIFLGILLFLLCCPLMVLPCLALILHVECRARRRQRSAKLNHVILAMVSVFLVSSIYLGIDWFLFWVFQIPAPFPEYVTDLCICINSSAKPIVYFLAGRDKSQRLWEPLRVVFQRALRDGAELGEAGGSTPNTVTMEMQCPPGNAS
T1 sequence (Q8NFJ6 whole entry): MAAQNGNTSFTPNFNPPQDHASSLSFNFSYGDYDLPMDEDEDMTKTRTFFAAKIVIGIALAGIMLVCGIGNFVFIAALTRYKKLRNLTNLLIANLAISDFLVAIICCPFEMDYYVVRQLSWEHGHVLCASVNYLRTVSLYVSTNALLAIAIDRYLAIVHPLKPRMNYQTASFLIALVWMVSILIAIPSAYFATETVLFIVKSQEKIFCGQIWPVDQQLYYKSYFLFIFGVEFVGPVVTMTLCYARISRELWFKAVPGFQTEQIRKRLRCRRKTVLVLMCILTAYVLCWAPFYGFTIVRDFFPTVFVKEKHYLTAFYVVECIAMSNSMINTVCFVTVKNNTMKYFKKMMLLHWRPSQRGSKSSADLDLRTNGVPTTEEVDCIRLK
T9 sequence (P28222 whole entry): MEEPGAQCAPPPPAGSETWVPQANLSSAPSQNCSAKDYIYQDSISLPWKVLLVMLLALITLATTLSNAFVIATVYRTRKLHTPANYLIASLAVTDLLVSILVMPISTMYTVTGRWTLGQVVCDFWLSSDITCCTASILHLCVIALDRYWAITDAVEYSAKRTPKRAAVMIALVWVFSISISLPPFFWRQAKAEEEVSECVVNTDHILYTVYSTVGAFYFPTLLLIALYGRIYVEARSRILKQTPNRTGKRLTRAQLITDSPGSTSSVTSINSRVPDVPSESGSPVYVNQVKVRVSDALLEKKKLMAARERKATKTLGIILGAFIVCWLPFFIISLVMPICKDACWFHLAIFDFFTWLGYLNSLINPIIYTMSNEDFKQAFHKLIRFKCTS

`NC(=O)c1nc(F)cnc1O` [favipiravir, 6-fluoro-3-hydroxy-2-pyrazinecarboxamide]: the values for the activation at 10 µM on 348 GPCRs [1] (setting [10]), at 348 GPCRs [6] (setting [15]) and on 348 GPCRs [8] (setting [18]) were -4.29%, -0.549% and 0.654%, respectively. Further, the activation at 100 µM at 348 GPCRs [1] (setting [11]) is 0.524%; at 348 GPCRs [2] (GPCR GPR119 (G protein-coupled receptor 119), 100μM, read-out: % GPCR activation compared to TPA) it was 3.67%; on 348 GPCRs [3] (setting [12]) it was -3.06%; at 348 GPCRs [4] (setting [13]), 0.411%; on 348 GPCRs [5] (setting [14]), -2.98%; at 348 GPCRs [7] (setting [16]), 0.745%. The activation at 100 µM is -1.13% at 348 GPCRs [7] (setting [17]) and -3.2% at 348 GPCRs [9] (setting [19]).

As for `CC(C)OC(=O)[C@H](C)N[P@](=O)(OC[C@H]1O[C@@H](n2ccc(=O)[nH]c2=O)[C@](C)(F)[C@@H]1O)Oc1ccccc1` [sofosbuvir], the activation at 10 µM on 348 GPCRs [1] (setting [20]) is -0.621%; at 348 GPCRs [2] (setting [22]), -6.04%; on 348 GPCRs [6] (setting [26]), 0.759%; on 348 GPCRs [8] (setting [29]), -0.312%. Also, the activation at 100 µM on 348 GPCRs [1] (setting [21]) is -2.61%; at 348 GPCRs [3] (setting [23]) it was -2.01%; on 348 GPCRs [4] (setting [24]), -1%; on 348 GPCRs [5] (setting [25]), -1.12%; on 348 GPCRs [7] (setting [27]) it was -2.71%; at 348 GPCRs [7] (setting [28]), -0.0367%. The activation at 100 µM at 348 GPCRs [9] (setting [30]) was -1%.

As for `CCC(CC)COC(=O)[C@H](C)N[P@](=O)(OC[C@H]1O[C@@](C#N)(c2ccc3c(N)ncnn23)[C@H](O)[C@@H]1O)Oc1ccccc1` [remdesivir], the activation at 10 µM is -3.23% at 348 GPCRs [1] (setting [20]), 7.14% at 348 GPCRs [2] (setting [22]), 0.189% at 348 GPCRs [6] (setting [26]) and -3.69% at 348 GPCRs [8] (setting [29]). Besides, the activation at 100 µM on 348 GPCRs [1] (setting [21]) is 0.417%; at 348 GPCRs [3] (setting [23]) it was 1.27%; at 348 GPCRs [4] (setting [24]) it was 0.556%; on 348 GPCRs [5] (setting [25]), -1.76%; on 348 GPCRs [7] (setting [27]) it was 0.574%; on 348 GPCRs [7] (setting [28]) it was -0.326%. At 348 GPCRs [9] (setting [30]), the activation at 100 µM was -0.255%.

On to `N#C[C@@]1(c2ccc3c(N)ncnn23)O[C@H](CO)[C@@H](O)[C@H]1O` [GS441524], for which the activation at 10 µM was -2.39% at 348 GPCRs [1] (setting [10]), 5.33% at 348 GPCRs [2] (setting [31]), 0.391% on 348 GPCRs [6] (setting [15]) and -5.47% at 348 GPCRs [8] (setting [18]). The activation at 100 µM at 348 GPCRs [1] (setting [11]) is -1.59%; on 348 GPCRs [3] (setting [12]), -3.54%; on 348 GPCRs [4] (setting [13]), -2.06%; at 348 GPCRs [5] (setting [14]) it was -1.3%; at 348 GPCRs [7] (setting [16]), 4.76%; on 348 GPCRs [7] (setting [17]), -0.751%. Besides, the activation at 100 µM at 348 GPCRs [9] (setting [19]) is -3.77%.

Regarding `CC(C)C(=O)OC[C@H]1O[C@@H](n2ccc(NO)nc2=O)[C@H](O)[C@@H]1O` [molnupiravir], the activation at 10 µM at 348 GPCRs [1] (setting [10]) was -5.79%; at 348 GPCRs [2] (setting [31]) it was -26.9%; at 348 GPCRs [6] (setting [15]), -0.417%; on 348 GPCRs [8] (setting [18]), -2.24%. In addition, the activation at 100 µM at 348 GPCRs [1] (setting [11]) is -1.79%; on 348 GPCRs [3] (setting [12]), -0.059%; at 348 GPCRs [4] (setting [13]), -0.65%; at 348 GPCRs [5] (setting [14]) it was -2.64%; at 348 GPCRs [7] (setting [16]), -3.54%; at 348 GPCRs [7] (setting [17]), -0.471%. Further, the activation at 100 µM on 348 GPCRs [9] (setting [19]) was -0.835%.
